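Assay format: 96-well plates, 48-hour exposure. Abbreviation: GI50, concentration required for 50% inhibition of growth. TGI: total growth inhibition.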
Tests used:
Assay in all cases: growth of human tumour cells (NCI), 48 h
HOP-62 NSCLC = test system: HOP-62 NSCLC
MDA-MB-231 breast = test system: MDA-MB-231 breast
OVCAR-4 ovarian = test system: OVCAR-4 ovarian
NCI-H460 lung = test system: NCI-H460 lung
SNB-19 CNS = test system: SNB-19 CNS
UACC-62 melanoma = test system: UACC-62 melanoma
SK-MEL-2 melanoma = test system: SK-MEL-2 melanoma
BT-549 breast = test system: BT-549 breast
SNB-75 CNS = test system: SNB-75 CNS
NCI/ADR-RES ovarian = test system: NCI/ADR-RES ovarian
HCT-15 colon = test system: HCT-15 colon
SR leukemia = test system: SR leukemia
CCRF-CEM leukemia = test system: CCRF-CEM leukemia
UO-31 renal = test system: UO-31 renal
MALME-3M melanoma = test system: MALME-3M melanoma
HS 578T breast = test system: HS 578T breast
HCC-2998 colon = test system: HCC-2998 colon
TK-10 renal = test system: TK-10 renal
T-47D breast = test system: T-47D breast
HT29 colon = test system: HT29 colon
MCF7 breast = test system: MCF7 breast
MDA-MB-435 = test system: MDA-MB-435
CAKI-1 renal = test system: CAKI-1 renal
PC-3 prostate = test system: PC-3 prostate
KM12 colon = test system: KM12 colon
IGROV1 ovarian = test system: IGROV1 ovarian
COLO 205 colon = test system: COLO 205 colon
DU-145 prostate = test system: DU-145 prostate
UACC-257 melanoma = test system: UACC-257 melanoma
OVCAR-3 ovarian = test system: OVCAR-3 ovarian
HOP-92 NSCLC = test system: HOP-92 NSCLC
RPMI-8226 leukemia = test system: RPMI-8226 leukemia
LOX IMVI melanoma = test system: LOX IMVI melanoma
SW-620 colon = test system: SW-620 colon
NCI-H226 lung = test system: NCI-H226 lung
SK-MEL-28 melanoma = test system: SK-MEL-28 melanoma
OVCAR-5 ovarian = test system: OVCAR-5 ovarian
U251 CNS = test system: U251 CNS
A498 renal = test system: A498 renal
NCI-H23 lung = test system: NCI-H23 lung
MOLT-4 leukemia = test system: MOLT-4 leukemia
M14 melanoma = test system: M14 melanoma
SF-295 CNS = test system: SF-295 CNS
SK-MEL-5 melanoma = test system: SK-MEL-5 melanoma
SK-OV-3 ovarian = test system: SK-OV-3 ovarian
OVCAR-8 ovarian = test system: OVCAR-8 ovarian
HCT-116 colon = test system: HCT-116 colon
ACHN renal = test system: ACHN renal
SF-268 CNS = test system: SF-268 CNS
SN12C renal = test system: SN12C renal
RXF 393 renal = test system: RXF 393 renal
NCI-H522 lung = test system: NCI-H522 lung
K-562 leukemia = test system: K-562 leukemia
SF-539 CNS = test system: SF-539 CNS
A549 NSCLC = test system: A549 NSCLC
HL-60(TB) leukemia = test system: HL-60(TB) leukemia
786-0 renal = test system: 786-0 renal

For `CC(=O)C1(c2ccccc2)CCCN(C)CC1` (configuration not stated), the TGI (HOP-62 NSCLC) was over 100 µM, the TGI (MDA-MB-231 breast) was over 100 µM and the TGI (OVCAR-4 ovarian) was over 100 µM. It also gave a TGI (NCI-H460 lung) of over 100 µM, a TGI (SNB-19 CNS) of over 100 µM and a TGI (UACC-62 melanoma) of over 100 µM. The TGI (SK-MEL-2 melanoma) was over 100 µM, the TGI (BT-549 breast) was over 100 µM and the TGI (SNB-75 CNS) was over 100 µM. For the same compound, the TGI (NCI/ADR-RES ovarian) was over 100 µM, the TGI (HCT-15 colon) was over 100 µM and the TGI (SR leukemia) was over 100 µM. It also gave a TGI (CCRF-CEM leukemia) of over 100 µM, a TGI (UO-31 renal) of over 100 µM and a TGI (MALME-3M melanoma) of over 100 µM. For the same compound, the TGI (HS 578T breast) was over 100 µM, the TGI (HCC-2998 colon) was over 100 µM and the TGI (TK-10 renal) was over 100 µM. The TGI (T-47D breast) was over 100 µM, the TGI (HT29 colon) was over 100 µM and the TGI (MCF7 breast) was over 100 µM. It also gave a TGI (MDA-MB-435) of over 100 µM, a TGI (CAKI-1 renal) of over 100 µM and a TGI (PC-3 prostate) of over 100 µM. It also gave a TGI (KM12 colon) of over 100 µM, a TGI (IGROV1 ovarian) of over 100 µM and a TGI (COLO 205 colon) of over 100 µM. For the same compound, the TGI (DU-145 prostate) was over 100 µM, the TGI (UACC-257 melanoma) was over 100 µM and the TGI (OVCAR-3 ovarian) was over 100 µM. For the same compound, the TGI (HOP-92 NSCLC) was over 100 µM, the TGI (RPMI-8226 leukemia) was over 100 µM and the TGI (LOX IMVI melanoma) was over 100 µM. The TGI (SW-620 colon) was over 100 µM, the TGI (NCI-H226 lung) was over 100 µM and the TGI (SK-MEL-28 melanoma) was over 100 µM. The TGI (OVCAR-5 ovarian) was over 100 µM, the TGI (U251 CNS) was over 100 µM and the TGI (A498 renal) was over 100 µM. The TGI (NCI-H23 lung) was over 100 µM, the TGI (MOLT-4 leukemia) was over 100 µM and the TGI (M14 melanoma) was over 100 µM. The TGI (SF-295 CNS) was over 100 µM, the TGI (SK-MEL-5 melanoma) was over 100 µM and the TGI (SK-OV-3 ovarian) was over 100 µM. The TGI (OVCAR-8 ovarian) was over 100 µM and the TGI (HCT-116 colon) was over 100 µM.
In the case of `O=C(Nc1nc(-c2ccc(Cl)cc2)cs1)c1ccc(O)c(O)c1`, the GI50 (HOP-62 NSCLC) is reported as 4.68 µM, the TGI (HOP-62 NSCLC) is reported as 17.6 µM and the GI50 (ACHN renal) is reported as 3.24 µM. It also gave a TGI (ACHN renal) of 12.1 µM, a GI50 (MDA-MB-231 breast) of 4.39 µM and a TGI (MDA-MB-231 breast) of 20.4 µM. For the same compound, the GI50 (OVCAR-4 ovarian) was 4.33 µM, the TGI (OVCAR-4 ovarian) was 35.9 µM and the GI50 (NCI-H460 lung) was 3.26 µM. It also gave a TGI (NCI-H460 lung) of 12.2 µM, a GI50 (SNB-19 CNS) of 3.82 µM and a TGI (SNB-19 CNS) of 19.7 µM. The GI50 (UACC-62 melanoma) was 4.24 µM, the TGI (UACC-62 melanoma) was 18.1 µM and the GI50 (SF-268 CNS) was 3.54 µM. It also gave a TGI (SF-268 CNS) of 13.9 µM, a GI50 (BT-549 breast) of 3.49 µM and a TGI (BT-549 breast) of 17.9 µM. It also gave a GI50 (SNB-75 CNS) of 3.25 µM, a TGI (SNB-75 CNS) of 17.4 µM and a GI50 (NCI/ADR-RES ovarian) of 3.89 µM. For the same compound, the TGI (NCI/ADR-RES ovarian) was 20.3 µM, the GI50 (HCT-15 colon) was 3.14 µM and the TGI (HCT-15 colon) was 18.3 µM. The GI50 (SR leukemia) was 2.09 µM, the TGI (SR leukemia) was 9.26 µM and the GI50 (CCRF-CEM leukemia) was 2.22 µM. It also gave a TGI (CCRF-CEM leukemia) of 9.35 µM, a GI50 (UO-31 renal) of 2.29 µM and a TGI (UO-31 renal) of 10.6 µM. It also gave a GI50 (MALME-3M melanoma) of 5.73 µM, a TGI (MALME-3M melanoma) of 22.2 µM and a GI50 (HS 578T breast) of 9.45 µM. The TGI (HS 578T breast) was 53.9 µM, the GI50 (HCC-2998 colon) was 12 µM and the TGI (HCC-2998 colon) was 26.5 µM. The GI50 (TK-10 renal) was 2.87 µM, the TGI (TK-10 renal) was 9.98 µM and the GI50 (T-47D breast) was 2.87 µM. For the same compound, the TGI (T-47D breast) was 18.5 µM, the GI50 (HT29 colon) was 11.6 µM and the TGI (HT29 colon) was 24.7 µM. For the same compound, the GI50 (MCF7 breast) was 5.49 µM, the TGI (MCF7 breast) was 43.4 µM and the GI50 (MDA-MB-435) was 3.18 µM. The TGI (MDA-MB-435) was 14.4 µM, the GI50 (CAKI-1 renal) was 3.02 µM and the TGI (CAKI-1 renal) was 10.9 µM. For the same compound, the GI50 (KM12 colon) was 5.36 µM, the TGI (KM12 colon) was 21.2 µM and the GI50 (IGROV1 ovarian) was 2.38 µM. It also gave a TGI (IGROV1 ovarian) of 8.04 µM, a GI50 (COLO 205 colon) of 11.4 µM and a TGI (COLO 205 colon) of 26.5 µM. The GI50 (DU-145 prostate) was 4.43 µM, the TGI (DU-145 prostate) was 15.9 µM and the GI50 (SN12C renal) was 3.67 µM. For the same compound, the TGI (SN12C renal) was 15.7 µM, the GI50 (UACC-257 melanoma) was 6.29 µM and the TGI (UACC-257 melanoma) was 24.3 µM. It also gave a GI50 (RXF 393 renal) of 3.82 µM, a TGI (RXF 393 renal) of 17 µM and a GI50 (OVCAR-3 ovarian) of 5.03 µM. The TGI (OVCAR-3 ovarian) was 18.2 µM, the GI50 (HOP-92 NSCLC) was 2.67 µM and the TGI (HOP-92 NSCLC) was 9.18 µM. It also gave a GI50 (RPMI-8226 leukemia) of 2.14 µM, a TGI (RPMI-8226 leukemia) of 10.7 µM and a GI50 (LOX IMVI melanoma) of 4.26 µM. The TGI (LOX IMVI melanoma) was 15.7 µM, the GI50 (SW-620 colon) was 4.74 µM and the TGI (SW-620 colon) was 20.1 µM. It also gave a GI50 (NCI-H226 lung) of 4.65 µM, a TGI (NCI-H226 lung) of 19.7 µM and a GI50 (SK-MEL-28 melanoma) of 3.63 µM. It also gave a TGI (SK-MEL-28 melanoma) of 20 µM, a GI50 (OVCAR-5 ovarian) of 14.7 µM and a TGI (OVCAR-5 ovarian) of 36.1 µM. For the same compound, the GI50 (U251 CNS) was 3 µM, the TGI (U251 CNS) was 13.7 µM and the GI50 (NCI-H522 lung) was 1.8 µM. It also gave a TGI (NCI-H522 lung) of 9.97 µM, a GI50 (K-562 leukemia) of 3.46 µM and a TGI (K-562 leukemia) of 20 µM. For the same compound, the GI50 (SF-539 CNS) was 3.92 µM, the TGI (SF-539 CNS) was 14.8 µM and the GI50 (A498 renal) was 3.37 µM. For the same compound, the TGI (A498 renal) was 15.5 µM, the GI50 (A549 NSCLC) was 2.91 µM and the TGI (A549 NSCLC) was 14.3 µM. It also gave a GI50 (NCI-H23 lung) of 4.27 µM, a TGI (NCI-H23 lung) of 20.3 µM and a GI50 (MOLT-4 leukemia) of 2.48 µM. For the same compound, the TGI (MOLT-4 leukemia) was 12.3 µM, the GI50 (M14 melanoma) was 4.87 µM and the TGI (M14 melanoma) was 20.5 µM. The GI50 (SF-295 CNS) was 11.5 µM, the TGI (SF-295 CNS) was 26.2 µM and the GI50 (HL-60(TB) leukemia) was 2.85 µM. For the same compound, the TGI (HL-60(TB) leukemia) was 9.53 µM, the GI50 (SK-MEL-5 melanoma) was 2.98 µM and the TGI (SK-MEL-5 melanoma) was 12 µM. The GI50 (SK-OV-3 ovarian) was 6.83 µM, the TGI (SK-OV-3 ovarian) was 22.4 µM and the GI50 (OVCAR-8 ovarian) was 4.14 µM. It also gave a TGI (OVCAR-8 ovarian) of 16.7 µM, a GI50 (786-0 renal) of 4.07 µM and a TGI (786-0 renal) of 15.3 µM. For the same compound, the GI50 (HCT-116 colon) was 3.71 µM and the TGI (HCT-116 colon) was 14.3 µM.

Source: PubChem BioAssay (NCI)
